The source of these data is patent US20060228694A1, “Methods to individualize combination therapy” (priority 2003, published 2006).

The subject of this test is A549 cells. The test is described as follows: In vitro cytotoxicity screening with median-effect (combination index) analysis of irinotecan and carboplatin. Format: cell-based. The conditions noted are these: single drug versus irinotecan plus carboplatin combination.

SMILES strings stand for the structures.

Description: As shown, therapeutic agents A and B are tested individually and together at two different ratios for their ability to cause cell death or cell stasis. In these experiments cell death or stasis was assessed using the MTT (3-[4,5-dimethylthiazol-2-yl]-2,5-diphenyltetrazolium) assay described below. Briefly, the dye MTT is reduced by living cells, producing a measurable change in optical density that is correlated to cell viability.
Correlations between the concentration of therapeutic agents A and B, and the two different combination ratios (Y:Z and X:Y) are plotted against cytotoxicity. Cytotoxicity is calculated as a percentage of surviving cells based on the survival of untreated control cells. […] Once this correlation has been established, the cell survival or fraction affected (fa) is used as a surrogate for concentration in calculating the CI.
The Chou-Talalay median-effect method is preferred. The analysis utilizes an equation wherein the dose that causes a particular effect, fa, is given by: D=Dm[fa/(1−fa)]^1/m in which D is the dose of the drug used, fa is the fraction of cells affected by that dose, Dm is the dose for median effect signifying the potency and m is a coefficient representing the shape of the dose-effect curve (m is 1 for first order reactions). […]

On to `CCc1c2c(nc3ccc(OC(=O)N4CCC(N5CCCCC5)CC4)cc13)-c1cc3c(c(=O)n1C2)COC(=O)[C@]3(O)CC` [irinotecan], for which the “Concentration required to achieve a 90% cell kill on its own compared with the concentration required when combined at a non-antagonistic ratio” value is reported as “significantly higher”.

On to `N.N.O=C([O-])C1(C(=O)[O-])CCC1.[Pt+2]` [carboplatin], for which the “Concentration required to achieve a 90% cell kill on its own compared with the concentration required when combined at a non-antagonistic ratio” value is recorded as “significantly higher”.
